Results on nine molecules are retold here after PMC6150381, “Design, Synthesis, and Biological Evaluation of N,N-Disubstituted-4-arylthiazole-2-methylamine Derivatives as Cholesteryl Ester Transfer Inhibitors” (Molecules : A Journal of Synthetic Chemistry and Natural …, 2017).

Where two headings read alike, the source gives them in different places. Bounds are passed on as bounds.

On the set-up of series [1]: method as in PMID 26047975. The settings on record: phase II clinical trials; ref [18]; cited from earlier work.
The target in series [2] is T1, recombinant CETP (Homo sapiens, UniProt P11597).
T1 construct: purchased Roar, New York, NY, USA RB-RPAK
T1 sequence (P11597 18-493): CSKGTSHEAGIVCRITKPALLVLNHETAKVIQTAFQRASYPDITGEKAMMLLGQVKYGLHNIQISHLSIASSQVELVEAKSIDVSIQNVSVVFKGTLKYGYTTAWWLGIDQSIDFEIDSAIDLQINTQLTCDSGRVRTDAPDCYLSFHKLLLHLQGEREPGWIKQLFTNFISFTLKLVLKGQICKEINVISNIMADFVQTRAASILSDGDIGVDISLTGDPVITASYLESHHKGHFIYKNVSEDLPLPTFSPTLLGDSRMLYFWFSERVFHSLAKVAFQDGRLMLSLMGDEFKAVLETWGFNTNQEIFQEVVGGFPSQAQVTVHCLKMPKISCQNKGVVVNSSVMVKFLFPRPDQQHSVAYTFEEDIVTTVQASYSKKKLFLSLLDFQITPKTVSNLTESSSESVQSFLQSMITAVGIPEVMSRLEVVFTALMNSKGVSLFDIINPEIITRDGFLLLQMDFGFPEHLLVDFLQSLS
Further details: method as in previous work. Particulars: in Figure 2; ref previous work; cited from earlier work.

Series [3] is described as follows: In vitro metabolic stability study, human liver microsomes. The settings on record: human liver microsome, no co-factor (no NADPH regenerating system). In kind it is in vitro ADME.
Assay in series [4]: as above
Format: in vitro ADME. The settings on record: for Remaining (T = 60 min): human liver microsome, with NADPH regenerating system; for microsomal CLint at 10 µM: human, liver microsomes, read-out: CL (clearance rate). The protocol:
(§1) Ten microliters (10 μL, 100 μM/L) of compounds and 80 μL of liver microsomes were mixed and incubated at 37 °C for 10 min, and then 10 μL of NADPH regenerating system was added. Samples were obtained at 0 min, 5 min, 10 min, 20 min, 30 min and 60 min. respectively, and 300 μL stop solution (cold in 4 °C, including 100 ng/mL tolbutamide and 100 ng/mL labetalol) was added to terminate the reaction. After oscillating for 10 min, the plates were centrifuged (4000 rpm) at room temperature for 20 min, and the supernatants were used for analysis.
Background: Liver microsomes are a subcellular fraction often used to study metabolism.

Series [5] addresses T1, recombinant CETP. Kind of series: In vitro CETP inhibitory assay (BODIPY-CE fluorescence assay, CETP RP Activity Assay Kit). Particulars: CETP inhibition, eight-point titration, each concentration tested three times. Format: biochemical. On the procedure:
The IC50 was determined from a curve fit of the data with each concentration tested three times.

Series [6] in a line: In vitro metabolic stability study, rat liver microsomes. Format: in vitro ADME. Particulars: for Remaining (NCF = 60 min) / Remaining (T = 60 min): rat liver microsome; for Remaining (NCF = 60 min): no co-factor (no NADPH regenerating system); for Remaining (T = 60 min): with NADPH regenerating system; for microsomal CLint at 10 µM: rat, liver microsomes, read-out: CL (clearance rate). On the procedure: as §1

For series [7] the following is noted: ref [12],[13],[14], cited from earlier work.

Consider `CCOC(=O)N1c2ccc(C(F)(F)F)cc2[C@@H](N(Cc2cc(C(F)(F)F)cc(C(F)(F)F)c2)c2ncc(OCCCC(=O)O)cn2)C[C@H]1CC` [AMG-899], for which, in series [1], the “increased HDL-C levels” value is 179.1% and the “reduced LDL-C levels” value was 45.3%.
Consider `O=C(CCN(Cc1ccc(F)cc1)c1cccc(Oc2ccccc2)c1)Nc1ccccc1` [Compound 5], for which the IC50 (commonly the concentration that inhibits the measured activity by half) at recombinant CETP [2] is 24.8 µM.
On to `COc1ccc(N(Cc2ccc(F)cc2)Cc2nc(-c3ccc([N+](=O)[O-])cc3)cs2)cc1OC` [Compound 30, N-(4-Fluorobenzyl)-3,4-dimethoxy-N-((4-(4-nitrophenyl)thiazol-2-yl)methyl)aniline], for which the melting point (as a rule, the temperature of the solid-liquid transition) is 111 to 112.8 °C. Moreover, the “Remaining (NCF = 60 min)” value in series [3] amounted to 68.0%. Besides, the “metabolic stability (in words)” value in series [4] (human and rat liver microsomes) is recorded as “weak human/rat liver microsome stability”. Further, in series [4], the “Remaining (T = 60 min)” value is given as 22.9% and the microsomal CLint at 10 µM stood at 48.1 µL/min/mg. Also, the IC50 on recombinant CETP [5] is 0.79 ± 0.02 µM. For the same molecule, in series [6], the “Remaining (NCF = 60 min)” value is 90.5%, the “Remaining (T = 60 min)” value is recorded as 3.2% and the microsomal CLint at 10 µM turned out to be 122 µL/min/mg.
For `COc1ccc(N(Cc2ccc(F)cc2)Cc2nc(-c3ccc(C(F)(F)F)cc3)cs2)cc1OC` [Compound 32, N-(4-Fluorobenzyl)-3,4-dimethoxy-N-((4-(4-(trifluoromethyl)phenyl)thiazol-2-yl)methyl)aniline], the melting point is 88.7 to 89.5 °C. The “Remaining (NCF = 60 min)” value in series [3] is on record as 69.1%. Besides, in series [4], the “Remaining (T = 60 min)” value is reported as 39.3% and the microsomal CLint at 10 µM worked out at 29.8 µL/min/mg. The IC50 at recombinant CETP [5] came to 0.97 ± 0.01 µM. Also, in series [6], the “Remaining (NCF = 60 min)” value is given as 101.3%, the “Remaining (T = 60 min)” value amounted to 10.1% and the microsomal CLint at 10 µM is 79.3 µL/min/mg.
Regarding `COc1ccc(N(Cc2ccc(F)cc2)Cc2nc(-c3ccc(NC(=O)C(F)(F)F)cc3)cs2)cc1OC` [Compound 45, N-(4-(2-(((3,4-Dimethoxyphenyl)(4-fluorobenzyl)amino)methyl)thiazol-4-yl)phenyl)-2,2,2-trifluoroacetamide], the melting point lay within 143.6 to 145.8 °C. On recombinant CETP [5], the IC50 amounted to 15.3 ± 0.17 µM.
In turn, `COc1ccc(N(Cc2ccc(F)cc2)Cc2nc(-c3ccc(NC(C)=O)cc3)cs2)cc1OC` [Compound 46, N-(4-(2-(((3,4-Dimethoxyphenyl)(4-fluorobenzyl)amino)methyl)thiazol-4-yl)phenyl)acetamide] had a melting point of 134.6 to 137 °C. Also, the IC50 on recombinant CETP [5] is greater than 50 µM.
For `COC(=O)CNc1ccc(-c2csc(CN(Cc3ccc(F)cc3)c3ccc(OC)c(OC)c3)n2)cc1` [Compound 47, Methyl(4-(2-(((3,4-dimethoxyphenyl)(4-fluorobenzyl)amino)methyl)thiazol-4-yl)phenyl)glycinate], in that order: 103.5 to 105.4 °C and 3.54 ± 0.03 µM.
For `COc1ccc(N(Cc2ccc(F)cc2)Cc2nc(-c3ccc(N4CCOCC4)cc3)cs2)cc1OC` [Compound 49, N-(4-Fluorobenzyl)-3,4-dimethoxy-N-((4-(4-morpholinophenyl)thiazol-2-yl)methyl)aniline] the same measures were 139 to 140.4 °C and greater than 50 µM.
`CCOC(=O)N1c2ccc(C(F)(F)F)cc2[C@@H](N(Cc2cc(C(F)(F)F)cc(C(F)(F)F)c2)C(=O)OC)C[C@H]1CC` [torcetrapib]: the “increase of HDL-C” value in series [7] (human studies, dose-dependent) is on record as “greater than 100%”. In series [7] (human studies), the LDL-C decreasing entry is given as “up to 42%”. Also, the increase in deaths in series [7] (torcetrapib/atorvastatin group compared to the atorvastatin group) is recorded as 58%.
